Measurements taken from PMC10018501 (ACS Omega, 2023).
Values joined by “and” are separate entries in the source; they are usually repeats but may differ in a detail not shown here. Identical values can stand only once.

What was measured:
[1] = target: T1, hAChE (Homo sapiens, UniProt P22303); assay: In vitro hAChE inhibition assay; format: biochemical
[2] = target: hBChE (Equus caballus, UniProt P81908); assay: In vitro hBChE inhibition assay; format: biochemical, human
[3] = target: hBACE-1 (Homo sapiens, UniProt P56817); assay: biochemical; conditions: IC50 ± SEM hBACE-1, n = 3
Sequence of hBACE-1 (P56817 46-501): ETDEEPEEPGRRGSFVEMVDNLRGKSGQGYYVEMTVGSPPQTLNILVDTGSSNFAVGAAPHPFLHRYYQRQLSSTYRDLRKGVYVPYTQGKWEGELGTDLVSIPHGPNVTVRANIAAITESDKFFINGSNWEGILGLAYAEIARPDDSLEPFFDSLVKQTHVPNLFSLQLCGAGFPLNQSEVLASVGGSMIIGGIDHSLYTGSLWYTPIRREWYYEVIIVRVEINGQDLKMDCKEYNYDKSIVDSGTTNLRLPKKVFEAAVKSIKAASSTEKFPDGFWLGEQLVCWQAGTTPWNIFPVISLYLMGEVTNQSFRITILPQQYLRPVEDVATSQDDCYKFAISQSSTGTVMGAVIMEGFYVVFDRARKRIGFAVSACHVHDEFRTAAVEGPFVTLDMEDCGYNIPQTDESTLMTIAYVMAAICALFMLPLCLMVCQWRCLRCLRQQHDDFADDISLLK

[4] = target: T1, hAChE; assay: hAChE enzyme kinetics; format: biochemical; conditions: substrate ATCI
[5] = target: PAS-AChE (hAChE-PAS region) (Homo sapiens, UniProt P22303); assay: Propidium iodide displacement assay; format: binding
Sequence of PAS-AChE (hAChE-PAS region) (P22303 32-617 isoform P22303-2 limits assumed): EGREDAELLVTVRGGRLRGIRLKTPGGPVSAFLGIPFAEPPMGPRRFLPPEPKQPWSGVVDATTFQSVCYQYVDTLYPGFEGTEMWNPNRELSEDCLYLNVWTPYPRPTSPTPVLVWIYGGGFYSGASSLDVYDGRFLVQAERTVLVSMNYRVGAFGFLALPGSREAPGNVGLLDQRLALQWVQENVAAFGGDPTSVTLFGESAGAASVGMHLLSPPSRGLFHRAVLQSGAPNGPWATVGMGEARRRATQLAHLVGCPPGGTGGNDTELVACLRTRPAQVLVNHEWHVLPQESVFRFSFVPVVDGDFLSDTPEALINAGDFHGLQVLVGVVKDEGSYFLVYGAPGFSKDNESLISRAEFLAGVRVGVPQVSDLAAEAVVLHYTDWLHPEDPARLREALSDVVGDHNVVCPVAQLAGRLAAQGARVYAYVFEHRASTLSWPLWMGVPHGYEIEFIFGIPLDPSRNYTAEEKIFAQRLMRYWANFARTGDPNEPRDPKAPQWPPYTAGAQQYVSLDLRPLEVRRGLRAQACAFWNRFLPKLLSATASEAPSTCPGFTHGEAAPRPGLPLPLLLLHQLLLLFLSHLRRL

[6] = test system: differentiated SH-SY5Y cells; assay: Neurotoxicity estimation; format: cell-based; conditions: 10, 20, 40 and 80 μM, 24 h
[7] = test system: nondifferentiated SH-SY5Y cells; assay: Neuroprotective estimation; format: cell-based; conditions: Homo sapiens, 24 h, read-out: cell viability
[8] = target: Aβ1–42 (Homo sapiens, UniProt P05067); assay: Self-induced Aβ aggregation inhibition thioflavin T assay; format: biochemical; conditions: compound 5, 10 and 20 μM; Aβ 10 μM
Sequence of Aβ1–42 (P05067 672-713): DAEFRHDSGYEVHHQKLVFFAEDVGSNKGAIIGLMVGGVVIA

[9] = target: Aβ1–42 with hAChE (Homo sapiens, UniProt P22303); assay: hAChE-induced Aβ aggregation inhibition thioflavin T assay; format: biochemical; conditions: compound 5, 10 and 20 μM; Aβ 10 μM
Sequence of Aβ1–42 with hAChE (P22303 32-588 isoform P22303-2): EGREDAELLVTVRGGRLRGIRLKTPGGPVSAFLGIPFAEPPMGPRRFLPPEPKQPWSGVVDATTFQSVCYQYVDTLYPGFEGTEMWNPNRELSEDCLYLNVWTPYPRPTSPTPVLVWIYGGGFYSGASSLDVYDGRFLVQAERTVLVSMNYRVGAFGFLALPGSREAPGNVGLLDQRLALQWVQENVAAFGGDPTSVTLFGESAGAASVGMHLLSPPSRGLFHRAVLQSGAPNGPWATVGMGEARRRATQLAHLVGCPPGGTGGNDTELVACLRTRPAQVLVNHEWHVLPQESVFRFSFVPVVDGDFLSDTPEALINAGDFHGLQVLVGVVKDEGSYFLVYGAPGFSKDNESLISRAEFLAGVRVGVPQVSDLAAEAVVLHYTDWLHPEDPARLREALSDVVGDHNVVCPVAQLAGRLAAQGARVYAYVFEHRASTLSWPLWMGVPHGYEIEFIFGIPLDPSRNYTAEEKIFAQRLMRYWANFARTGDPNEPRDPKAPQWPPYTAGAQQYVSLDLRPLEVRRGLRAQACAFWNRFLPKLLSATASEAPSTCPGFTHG

[10] = test system: female Wistar rats; assay: Acute oral toxicity study; format: in vivo
[11] = test system: scopolamine-induced rat model; assay: Scopolamine-induced Y-maze test; format: in vivo, Wistar rats; conditions: SD-6 2.5, 5, 10 mg/kg p.o.; donepezil 5 mg/kg p.o.; 7 days; vs scopolamine group
[12] = test system: AChE; assay: Ex vivo AChE estimation in hippocampal homogenate; set-up: species or system rat; conditions: scopolamine-treated rats; SD-6 2.5, 5, 10 mg/kg
[13] = test system: acetylcholine (ACh); assay: Ex vivo ACh estimation; format: in vivo, rat; conditions: scopolamine-treated rats; SD-6 2.5, 5, 10 mg/kg
[14] = test system: malonaldehyde (MDA); assay: Ex vivo MDA estimation; format: in vivo, rat; conditions: scopolamine-treated rats; SD-6 2.5, 5, 10 mg/kg; donepezil 5 mg/kg
[15] = test system: superoxide dismutase (SOD); assay: Ex vivo SOD assay; format: in vivo, rat; conditions: scopolamine-treated rats; SD-6 2.5, 5, 10 mg/kg; donepezil 5 mg/kg
[16] = test system: glutathione (GSH); assay: Ex vivo reduced glutathione; format: in vivo, rat; conditions: scopolamine-treated rats; SD-6 2.5, 5, 10 mg/kg; donepezil 5 mg/kg
[17] = test system: catalase; assay: Ex vivo catalase assay; format: in vivo, rat; conditions: scopolamine-treated rats; SD-6 2.5, 5, 10 mg/kg; donepezil 5 mg/kg
[18] = test system: hippocampal brain (dentate gyrus) neurons; assay: Brain tissue histopathology; format: in vivo, rat; conditions: Aβ1–42 rats, SD-6 10 mg/kg, donepezil 5 mg/kg
[19] = n = 3, mean ± SEM
[20] = in vitro; conditions: PAMPA, pH 7.4
[21] = test system: ICV Aβ1–42-induced rat model; assay: Aβ-induced Morris water maze test; conditions: SD-6 10 mg/kg, donepezil 5 mg/kg, orally 9 days; vs Aβ group

T1 sequence (P22303 32-617 isoform P22303-2 limits assumed): as the sequence (P22303 32-617 isoform P22303-2 limits assumed) above
Sequence of hBChE (P81908 whole entry): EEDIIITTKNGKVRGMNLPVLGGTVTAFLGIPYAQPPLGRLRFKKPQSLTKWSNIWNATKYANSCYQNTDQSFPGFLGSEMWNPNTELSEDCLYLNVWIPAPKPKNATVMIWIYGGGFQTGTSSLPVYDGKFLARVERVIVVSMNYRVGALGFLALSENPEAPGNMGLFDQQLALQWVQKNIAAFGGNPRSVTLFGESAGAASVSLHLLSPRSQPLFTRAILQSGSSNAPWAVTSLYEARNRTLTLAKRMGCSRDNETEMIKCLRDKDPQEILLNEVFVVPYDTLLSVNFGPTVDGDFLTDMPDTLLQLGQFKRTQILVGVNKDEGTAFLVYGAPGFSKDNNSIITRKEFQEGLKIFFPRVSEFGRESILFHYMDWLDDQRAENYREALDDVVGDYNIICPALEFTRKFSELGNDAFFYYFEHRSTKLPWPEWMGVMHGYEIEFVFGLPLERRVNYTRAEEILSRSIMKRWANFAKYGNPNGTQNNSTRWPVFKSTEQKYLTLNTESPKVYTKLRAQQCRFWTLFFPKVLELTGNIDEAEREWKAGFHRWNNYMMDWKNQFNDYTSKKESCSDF

Q: Which IC50 ([1]; IC50 ± SEM hAChE, n = 3) does the source give for S=c1oc(-c2ccccc2)nn1CN1CCN(Cc2ccccc2)CC1 [SD-6, 3-((4-Benzylpiperazin-1-yl)methyl)-5-phenyl-1,3,4-oxadiazole-2(3H)-thione] here?
A: 907 ± 11 nM

Q: And the IC50 ([1]; hAChE inhibitory activity (good/moderate/poor), class in words)?
A: < 1000 nM

Q: And the IC50 [2]?
A: 1580 ± 37 nM

Q: And the IC50 [3]?
A: 753 ± 18 nM

Q: What about the “type of inhibition (Lineweaver–Burk plot)” value [4] of the same compound?
A: mixed-type noncompetitive

Q: What about the “PAS-AChE propidium iodide displacement (%)” value ([5]; [I] = 10 μM) of the same compound?
A: 27.3% and 27.316 ± 1.208%

Q: And the “PAS-AChE propidium iodide displacement (%)” value ([5]; [I] = 50 μM)?
A: 56.2% and 56.238 ± 1.338%

Q: And the “neurotoxicity (MTT, cell population and morphology)” value [6]?
A: non-neurotoxic

Q: And the viability at 5 µM [7]?
A: 61.4%

Q: What about the viability at 10 µM [7] of the same compound?
A: 74%

Q: And the viability at 20 µM [7]?
A: 83.6%

Q: And the “% Aβ aggregation inhibition, self-induced” value [8]?
A: 22–69%

Q: And the “% Aβ aggregation inhibition, hAChE-induced” value [9]?
A: 41–81%

Q: What about the “weight loss (initial, in some animals)” value ([10]; 100–500 mg/kg, p.o., regained in 10–12 days) of the same compound?
A: 12–25%

Q: What about the “organ histopathology (kidney, liver, lungs, heart; H&E)” value ([10]; after 14 days) of the same compound?
A: normal tissue appearance

Q: And the “hepatic and renal function tests” value ([10]; blood samples after acute toxicity study)?
A: within the range

Q: And the “% spontaneous alterations” value [11]?
A: significant increase in % spontaneous alterations in a dose-dependent manner

Q: And the “AChE level (hippocampal)” value [12]?
A: dose-dependent decrease

Q: What about the ACh brain level [13] of the same compound?
A: dose-dependent increase

Q: And the MDA level [14]?
A: declines in MDA

Q: And the SOD level [15]?
A: elevation of SOD levels

Q: And the GSH level [16]?
A: elevation of both the biomarkers

Q: What about the catalase activity [17] of the same compound?
A: elevation of both the biomarkers

Q: And the “neuronal morphology (dentate gyrus)” value [18]?
A: less disordered neuronal arrangement and vacuolar fibrosis

Q: What about the “neuronal density (dentate gyrus)” value ([18]; vs Aβ1–42-treated group) of the same compound?
A: higher

Q: And the “Pe(exp) PAMPA–BBB” value [19]?
A: 5.643 10^–6 cm/s

Q: And the Papp [20]?
A: 5.643 ± 0.021 ×10⁻⁶ cm/s

Q: What about the “escape latency time (ELT)” value [21] of the same compound?
A: significant change as compared to the Aβ group

Q: What about the “time spent in the platform zone” value [21] of the same compound?
A: significantly (^bp < 0.001) higher

Q: What about the “total number of entries to the platform zone” value [21] of the same compound?
A: significantly (^bp < 0.001) different from the Aβ-treated animal group
